Source: US9783488B2 (CHDI Foundation, Inc., priority 2013, dated 2017)

What was measured:
[1] = tested on: cellular histone deacetylase enzymatic activity in Jurkat E6-1 cells; assay: Inhibition of cellular HDAC activity in Jurkat E6-1 cells, fluorogenic substrate Boc-Lys(Tfa)-AMC; type: cell-based; settings: Homo sapiens, read-out: Cell IC50
Summary of the method: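 Jurkat E6.1 cells (75,000/well) were pre-treated with compound for 2 h at 37 °C, then given Boc-Lys(Tfa)-AMC (5× stock 500 μM) for 3 h. Cells were lysed with trypsin-containing buffer overnight, and released AMC fluorescence was read at Ex 355/Em 460 nm over a 16-point dilution series.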

[2] = target: human catalytic domain HDAC4 protein (amino acids 648-1032) (Homo sapiens (Human), UniProt P56524); assay: Inhibition of HDAC4 catalytic domain enzymatic activity, fluorogenic substrate Boc-Lys(Tfa)-AMC; settings: HDAC4 catalytic domain enzyme, read-out: Biochemical HDAC4 IC50
Chain of human catalytic domain HDAC4 protein (amino acids 648-1032) (P56524 648-1032): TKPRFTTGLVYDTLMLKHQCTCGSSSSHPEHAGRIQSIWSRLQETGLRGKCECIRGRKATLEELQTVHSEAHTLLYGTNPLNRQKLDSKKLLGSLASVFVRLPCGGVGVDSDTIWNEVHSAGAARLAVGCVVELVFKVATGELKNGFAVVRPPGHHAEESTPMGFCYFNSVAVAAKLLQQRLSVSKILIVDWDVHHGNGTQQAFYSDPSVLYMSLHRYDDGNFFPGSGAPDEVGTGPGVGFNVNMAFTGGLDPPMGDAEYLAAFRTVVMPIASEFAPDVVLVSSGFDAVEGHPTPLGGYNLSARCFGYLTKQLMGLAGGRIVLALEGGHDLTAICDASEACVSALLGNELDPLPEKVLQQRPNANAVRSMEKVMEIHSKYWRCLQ

An IC50 [1] of 750 nM and an IC50 [2] of 320 nM were found for `Cc1c(F)cccc1[C@]1(C(=O)NO)CC[C@@H](c2cnc(OCCN3CCCC3)c(F)c2)C1` (relative stereo) [Example 48, (1 S,3R*)-1-(3-Fluoro-2-methylphenyl)-3-(5-fluoro-6-(2-(pyrrolidin-1-yl)ethoxy)pyridin-3-yl)-N-hydroxycyclopentanecarboxamide] in this work.

An IC50 [1] of 2530 nM and an IC50 [2] of 280 nM were found for `Cc1c(Cl)cccc1C1(C(=O)NO)CCCC1` [Example 17, 1-(3-chloro-2-methylphenyl)-N-hydroxycyclopentanecarboxamide] in this work.

An IC50 [1] of 81 nM and an IC50 [2] of 73 nM were found for `Cc1c(F)cccc1[C@]1(C(=O)NO)CC[C@@H](c2ccc3cn[nH]c3c2F)C1` (relative stereo) [Example 61, (1S,3R*)-3-(7-fluoro-1H-indazol-6-yl)-1-(3-fluoro-2-methylphenyl)-N-hydroxycyclopentanecarboxamide] in this work.

An IC50 [1] of over 50000 nM and an IC50 [2] of over 50000 nM were found for `O=C(NO)[C@]1(c2ccccc2)CC[C@H](c2cncc(F)c2)CC1` [Example 14, (1s,4s)-4-(5-fluoropyridin-3-yl)-N-hydroxy-1-phenylcyclohexanecarboxamide] in this work.

An IC50 [1] of 7200 nM and an IC50 [2] of 1400 nM were found for `O=C(NO)[C@@]1(c2ccccc2)CC[C@H](c2cncc(F)c2)C1` [Example 42, (1S,3S)-3-(5-fluoropyridin-3-yl)-N-hydroxy-1-phenylcyclopentanecarboxamide] in this work.

An IC50 [1] of 8400 nM and an IC50 [2] of 720 nM were found for `Cc1c(F)cccc1[C@@]1(C(=O)NO)CC[C@H](c2cncc(F)c2)C1` (stereo in doubt) [Example 39, (1R,3S*)-1-(3-fluoro-2-methylphenyl)-3-(5-fluoropyridin-3-yl)-N-hydroxycyclopentanecarboxamide] in this work.

An IC50 [1] of 180 nM and an IC50 [2] of 48 nM were found for `Cc1c(F)cccc1[C@]1(C(=O)NO)CC[C@H](c2ccc3ncccc3c2)C1` (relative stereo) [Example 84, (1S,3S*)-1-(3-Fluoro-2-methylphenyl)-N-hydroxy-3-(quinolin-6-yl)cyclopentanecarboxamide] in this work.

An IC50 [1] of 1830 nM and an IC50 [2] of 200 nM were found for `Cc1c(F)cccc1[C@]1(C(=O)NO)CC[C@H](c2ccc(F)cn2)C1` (relative stereo) [Example 11, (1S,3S*)-1-(3-fluoro-2-methylphenyl)-3-(5-fluoropyridin-2-yl)-N-hydroxycyclopentane carboxamide] in this work.

An IC50 [1] of 200 nM and an IC50 [2] of 90 nM were found for `Cc1c(F)cccc1[C@]1(C(=O)NO)CC[C@@H](c2ccc3c(c2)ncn3C)C1` (relative stereo) [Example 69, (1S,3R*)-1-(3-fluoro-2-methylphenyl)-N-hydroxy-3-(1-methyl-1H-benzo[d]imidazol-5-yl)cyclopentanecarboxamide] in this work.

An IC50 [1] of 4600 nM and an IC50 [2] of 610 nM were found for `O=C(NO)C1(c2cccc3ccsc23)CCCC1` [Example 38, 1-(Benzo[b]thiophen-7-yl)-N-hydroxycyclopentanecarboxamide] in this work.

An IC50 [1] of 360 nM and an IC50 [2] of 400 nM were found for `Cc1c(F)cccc1[C@]1(C(=O)NO)CC[C@@H](c2ccc3c(F)nn(C)c3c2)C1` (relative stereo) [Example 67, (1S,3R*)-3-(3-fluoro-1-methyl-1H-indazol-6-yl)-1-(3-fluoro-2-methylphenyl)-N-hydroxycyclopentanecarboxamide] in this work.

An IC50 [1] of over 50000 nM and an IC50 [2] of 11400 nM were found for `O=C(NO)C1(c2ccccc2)CCCC1` [Example 21, N-Hydroxy-1-phenylcyclopentanecarboxamide] in this work.

An IC50 [1] of 8400 nM and an IC50 [2] of 3600 nM were found for `Cc1c(F)cccc1[C@@]1(C(=O)NO)CC[C@@H](c2cncc(F)c2)C1` (stereo in doubt) [Example 40, (1R,3R*)-1-(3-fluoro-2-methylphenyl)-3-(5-fluoropyridin-3-yl)-N-hydroxycyclopentanecarboxamide] in this work.

An IC50 [1] of 1390 nM and an IC50 [2] of 140 nM were found for `Cc1c(F)cccc1[C@]1(C(=O)NO)CC[C@@H](c2cncc(F)c2)C1` (stereo in doubt) [Example 10, (1S,3R*)-1-(3-fluoro-2-methyl-phenyl)-3-(5-fluoropyridin-3-yl)-N-hydroxycyclopentanecarboxamide] in this work.

An IC50 [1] of 420 nM and an IC50 [2] of 310 nM were found for `Cc1c(F)cccc1[C@]1(C(=O)NO)CC[C@H](c2ccc3nc(C4CC4)sc3c2)C1` (relative stereo) [Example 77, (1 S,3S*)-3-(2-cyclopropylbenzo[d]thiazol-6-yl)-1-(3-fluoro-2-methylphenyl)-N-hydroxycyclopentanecarboxamide] in this work.

An IC50 [1] of 660 nM and an IC50 [2] of 240 nM were found for `Cc1c(F)cccc1[C@]1(C(=O)NO)CC[C@H](OCc2ccc(F)cc2)C1` [Example 97, (1S,3S)-1-(3-fluoro-2-methylphenyl)-3-((4-fluorobenzyl)oxy)-N-hydroxycyclopentanecarboxamide] in this work.

An IC50 [1] of over 50000 nM and an IC50 [2] of over 50000 nM were found for `N#Cc1ccccc1C1(C(=O)NO)CCCC1` [Example 27, 1-(2-Cyanophenyl)-N-hydroxycyclopentanecarboxamide] in this work.

An IC50 [1] of 38000 nM and an IC50 [2] of 4100 nM were found for `Cc1c(F)cccc1[C@]1(C(=O)NO)CC[C@H](c2cncc(F)c2)CC1` [Example 99, (1r,4r)-1-(3-fluoro-2-methylphenyl)-4-(5-fluoropyridin-3-yl)-N-hydroxycyclohexanecarboxamide] in this work.

An IC50 [1] of 540 nM and an IC50 [2] of 95 nM were found for `Cc1c(F)cccc1[C@]1(C(=O)NO)CC[C@@H](c2cnn(C(F)F)c2)C1` (relative stereo) [Example 46, (1S,3R*)-3-(1-(Difluoromethyl)-1H-pyrazol-4-yl)-1-(3-fluoro-2-methylphenyl)-N-hydroxy cyclopentane carboxamide] in this work.

An IC50 [1] of 13000 nM and an IC50 [2] of 1900 nM were found for `O=C(NO)[C@@]1(c2ccccc2)CC[C@@H](c2cncc(F)c2)C1` [Example 41, (1S,3R)-3-(5-fluoropyridin-3-yl)-N-hydroxy-1-phenylcyclopentanecarboxamide] in this work.

An IC50 [1] of over 50000 nM and an IC50 [2] of 24000 nM were found for `O=C(NO)C1(c2ccc(Cl)cc2)CCCC1` [Example 20, 1-(4-chlorophenyl)-N-hydroxycyclopentanecarboxamide] in this work.

An IC50 [1] of over 50000 nM and an IC50 [2] of over 50000 nM were found for `O=C(NO)C1(c2ccccc2)CCCCC1` [Example 98, 1-phenyl-N-hydroxycyclohexylcarboxamide] in this work.

An IC50 [1] of 110 nM and an IC50 [2] of 74 nM were found for `Cc1c(F)cccc1[C@]1(C(=O)NO)CC[C@@H](c2ccc3nc(C(F)(F)F)[nH]c3c2)C1` (relative stereo) [Example 74, (1S,3R*)-1-(3-Fluoro-2-methylphenyl)-N-hydroxy-3-(2-(trifluoromethyl)-1H-benzo[d]imidazol-6-yl)cyclopentanecarboxamide] in this work.

An IC50 [1] of 190 nM and an IC50 [2] of 220 nM were found for `Cc1c(F)cccc1[C@]1(C(=O)NO)CC[C@H](c2ccc3cn(C(F)F)nc3c2)C1` (relative stereo) [Example 66, (1S,3S*)-3-(2-(difluoromethyl)-2H-indazol-6-yl)-1-(3-fluoro-2-methylphenyl)-N-hydroxycyclopentanecarboxamide] in this work.

An IC50 [1] of 46000 nM and an IC50 [2] of 11000 nM were found for `O=C(NO)C1(c2ccccc2C(F)(F)F)CCCC1` [Example 34, N-Hydroxy-1-(2-(trifluoromethyl)phenyl)cyclopentanecarboxamide] in this work.

An IC50 [1] of 1700 nM and an IC50 [2] of 270 nM were found for `Cc1c(F)cccc1C1(C(=O)NO)CCCC1` [Example 18, 1-(3-fluoro-2-methylphenyl)-N-hydroxycyclopentanecarboxamide] in this work.

An IC50 [1] of 420 nM and an IC50 [2] of 340 nM were found for `Cc1c(F)cccc1[C@]1(C(=O)NO)CC[C@@H](c2ccc3nc(C4CC4)sc3c2)C1` (relative stereo) [Example 78, (1 S,3R*)-3-(2-cyclopropylbenzo[d]thiazol-6-yl)-1-(3-fluoro-2-methylphenyl)-N-hydroxycyclopentanecarboxamide] in this work.

An IC50 [1] of 120 nM and an IC50 [2] of 62 nM were found for `Cc1c(F)cccc1[C@]1(C(=O)NO)CC[C@@H](c2ccc3ncccc3c2)C1` (relative stereo) [Example 85, (1 S,3R*)-1-(3-Fluoro-2-methylphenyl)-N-hydroxy-3-(quinolin-6-yl)cyclopentanecarboxamide] in this work.

An IC50 [1] of 1800 nM and an IC50 [2] of 250 nM were found for `Cc1c(F)cccc1[C@]1(C(=O)NO)CC[C@H](c2ccnn2C)C1` (relative stereo) [Example 50, (1S,3S*)-1-(3-Fluoro-2-methylphenyl)-N-hydroxy-3-(1-methyl-1H-pyrazol-5-yl)cyclopentanecarboxamide] in this work.

An IC50 [1] of 1410 nM and an IC50 [2] of 150 nM were found for `Cc1c(C2(C(=O)NO)CCCC2)ccc(F)c1F` [Example 29, 1-(3,4-Difluoro-2-methylphenyl)-N-hydroxycyclopentanecarboxamide] in this work.

An IC50 [1] of 230 nM and an IC50 [2] of 140 nM were found for `Cc1c(F)cccc1[C@]1(C(=O)NO)CC[C@@H](c2ccc3cnn(C)c3c2)C1` (relative stereo) [Example 56, (1S,3R*)-1-(3-fluoro-2-methylphenyl)-N-hydroxy-3-(1-methyl-1H-indazol-6-yl)cyclopentanecarboxamide] in this work.

An IC50 [1] of 810 nM and an IC50 [2] of 360 nM were found for `Cc1c(F)cccc1[C@]1(C(=O)NO)CC[C@@H](c2cccc3cnn(C)c23)C1` (relative stereo) [Example 60, (1S,3R*)-1-(3-fluoro-2-methylphenyl)-N-hydroxy-3-(1-methyl-1H-indazol-7-yl)cyclopentanecarboxamide] in this work.

An IC50 [1] of 830 nM and an IC50 [2] of 160 nM were found for `Cc1c(F)cccc1[C@]1(C(=O)NO)CC[C@H](Oc2cncc(F)c2)C1` [Example 94, (1S,3S)-1-(3-fluoro-2-methylphenyl)-3-((5-fluoropyridin-3-yl)oxy)-N-hydroxycyclopentanecarboxamide] in this work.

An IC50 [1] of over 50000 nM and an IC50 [2] of over 50000 nM were found for `COc1ccccc1C1(C(=O)NO)CCCC1` [Example 23, N-Hydroxy-1-(2-methoxyphenyl)cyclopentanecarboxamide] in this work.

An IC50 [1] of 240 nM and an IC50 [2] of 160 nM were found for `Cc1c(F)cccc1[C@]1(C(=O)NO)CC[C@@H](c2nc3ccccc3s2)C1` (relative stereo) [Example 76, (1S,3R*)-3-(Benzo[d]thiazol-2-yl)-1-(3-fluoro-2-methylphenyl)-N-hydroxycyclopentanecarboxamide] in this work.
